Measurements taken from patent US8119563B2, “N-substituted azacycles” (FMC Corporation, priority 2003, dated 2012).

System: tobacco budworm (Heliothis virescens [Fabricius])
Assay: surface-treated diet test, insecticidal activity against tobacco budworm
Format: in vivo
Design: mortality: concentration or dose not given beside the values
Details: 0.25 millimoles of candidate insecticide on the surface of the diet, second instar larvae, five-day exposure
Procedure, shortened: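 Wheat germ artificial diet surface-treated with compound from 50 mM DMSO stock diluted 1:7 in 1:1 water/acetone (0.25 millimolar on diet), or lower-rate dilutions; DMSO-only controls. One second-instar larva per well, 25° C, 60% RH, 14 h light, five days; percent weight inhibition versus untreated and percent mortality scored.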

[1] = compared to total number of insects infested
[2] = inhibition of insect weight relative to untreated controls

Structure (SMILES)	Percent Mortality [1] [%]	Percent Growth Inhibition [2] [%]	mortality (Heliothis virescens, 120 h, compared to total number of insects infested, read-out: Percent Mortality) [%]	pest or weed control at 0.25 mmol/well (Heliothis virescens, 120 h, inhibition of insect weight relative to untreated controls, read-out: Percent Growth Inhibition) [%]
CCCNC(=O)Oc1ccc(CN2CCC(O)(C(c3ccc(OC(F)(F)F)cc3)c3ccc(OC(F)(F)F)cc3)CC2)cc1 [Compound 300]	100	100		
OC1(C(c2ccc(OC(F)(F)F)cc2)c2ccc(OC(F)(F)F)cc2)CCN(Cc2ccc(C=NOCC(F)(F)F)cc2)CC1 [Compound 301]	100	100		
Oc1ccc(CN2CCC(O)(C(c3ccc(C(F)(F)F)cc3)c3ccc(C(F)(F)F)cc3)CC2)cc1 [Compound 302]	17	100		
CC(C)Oc1ccc(CN2CCC(O)(C(c3ccc(C(F)(F)F)cc3)c3ccc(C(F)(F)F)cc3)CC2)cc1 [Compound 303]	100	100		
OC1(C(c2ccc(OC(F)(F)F)cc2)c2ccc(OC(F)(F)F)cc2)CCN(Cc2ccc(OCc3ccccc3)cc2)CC1 [Compound 304]	100	100		
CC(C)=CCCC(C)=CCON=Cc1ccc(CN2CCC(O)(C(c3ccc(OC(F)(F)F)cc3)c3ccc(OC(F)(F)F)cc3)CC2)cc1 [Compound 305]	0	31		
OC1(C(c2ccc(OC(F)(F)C(F)C(F)(F)F)cc2)c2ccc(OC(F)(F)C(F)C(F)(F)F)cc2)CCN(Cc2ccc(Oc3ncccn3)cc2)CC1 (stereo not drawn) [Compound 306]	100	100		
OC1(C(c2ccc(C(F)(F)F)cc2)c2ccc(C(F)(F)F)cc2)CCN(Cc2ccc(Oc3ccc(Cl)nn3)cc2)CC1 [Compound 307]	100	100		
COCCOc1ccc(CN2CCC(O)(C(c3ccc(OC(F)(F)F)cc3)c3ccc(OC(F)(F)F)cc3)CC2)cc1 [Compound 308, 4-{bis[4-(trifluoromethoxy)phenyl]methyl}-1-{[4-(2-methoxyethoxy)phenyl]methyl}piperidin-4-ol]			100	100
OC1(C(c2ccc(OC(F)(F)F)cc2)c2ccc(OC(F)(F)F)cc2)CCN(Cc2ccc(-c3ccccn3)cc2)CC1 [Compound 309]	100	100		
CCCOC(=O)Nc1ccc(CN2CCC(O)(C(c3ccc(OC(F)(F)F)cc3)c3ccc(OC(F)(F)F)cc3)CC2)cc1 [Compound 310]	100	100		
CC(C)(C)NC(=O)Oc1ccc(CN2CCC(O)(C(c3ccc(OC(F)(F)F)cc3)c3ccc(OC(F)(F)F)cc3)CC2)cc1 [Compound 311]	100	100		
OC1(C(c2ccc(OC(F)(F)F)cc2)c2ccc(OC(F)(F)F)cc2)CCN(Cc2ccc(C=NOCCF)cc2)CC1 [Compound 312]	100	100		
CCCOC(=O)Nc1ccc(CN2CCC(O)(C(c3ccc(C(F)(F)F)cc3)c3ccc(C(F)(F)F)cc3)CC2)cc1 [Compound 313]	100	100		
OC1(C(c2ccc(OC(F)(F)F)cc2)c2ccc(OC(F)(F)F)cc2)CCN(Cc2ccc(OCC3CC3)cc2)CC1 [Compound 315]	100	100		
OC1(C(c2ccc(C(F)(F)F)cc2)c2ccc(C(F)(F)F)cc2)CCN(Cc2ccc(OCc3ccccc3)cc2)CC1 [Compound 316]	67	100		
CCOC(=O)CNC(=O)Oc1ccc(CN2CCC(O)(C(c3ccc(OC(F)(F)F)cc3)c3ccc(OC(F)(F)F)cc3)CC2)cc1 [Compound 317]	100	100		
O=C(Nc1ccc(CN2CCC(O)(C(c3ccc(C(F)(F)F)cc3)c3ccc(C(F)(F)F)cc3)CC2)cc1)OCC1CC1 [Compound 319]	100	100		
O=C(NC1CCCC1)Oc1ccc(CN2CCC(O)(C(c3ccc(OC(F)(F)F)cc3)c3ccc(OC(F)(F)F)cc3)CC2)cc1 [Compound 320]	100	100		
Cc1ccnc(Oc2ccc(CN3CCC(O)(C(c4ccc(OC(F)(F)F)cc4)c4ccc(OC(F)(F)F)cc4)CC3)cc2)c1 [Compound 321]	100	100		
OC1(C(c2ccc(OC(F)(F)F)cc2)c2ccc(OC(F)(F)F)cc2)CCN(Cc2ccc(Oc3ncccc3Cl)cc2)CC1 [Compound 322]	100	100		
O=C(NCc1ccc(Cl)c(Cl)c1)Oc1ccc(CN2CCC(O)(C(c3ccc(OC(F)(F)F)cc3)c3ccc(OC(F)(F)F)cc3)CC2)cc1 [Compound 323]	33	100		
O=C(Nc1ccc(Cl)cc1)Oc1ccc(CN2CCC(O)(C(c3ccc(OC(F)(F)F)cc3)c3ccc(OC(F)(F)F)cc3)CC2)cc1 [Compound 324]	33	100		

Structure (SMILES)	Percent Mortality [1] [%]	Percent Growth Inhibition [2] [%]	mortality (Heliothis virescens, 120 h, compared to total number of insects infested, read-out: Percent Mortality) [%]	pest or weed control at 0.25 mmol/well (Heliothis virescens, 120 h, inhibition of insect weight relative to untreated controls, read-out: Percent Growth Inhibition) [%]
CCCCNC(=O)Oc1ccc(CN2CCC(O)(C(c3ccc(OC(F)(F)F)cc3)c3ccc(OC(F)(F)F)cc3)CC2)cc1 [Compound 326]	100	100		
O=C(Nc1ccc(CN2CCC(O)(C(c3ccc(OC(F)(F)F)cc3)c3ccc(OC(F)(F)F)cc3)CC2)cc1)OCC1CC1 [Compound 327]	100	100		
O=C(NC1CCCCC1)Oc1ccc(CN2CCC(O)(C(c3ccc(OC(F)(F)F)cc3)c3ccc(OC(F)(F)F)cc3)CC2)cc1 [Compound 329]	67	100		
CC(C)OC(=O)c1ccc(CN2CCC(O)(C(c3ccc(C(F)(F)F)cc3)c3ccc(C(F)(F)F)cc3)CC2)cc1 [Compound 330]	100	100		
CC(C)(C)c1ccc(C(c2ccc(OC(F)(F)F)cc2)C2(O)CC[N+]([O-])(Cc3ccc(Oc4ccccn4)cc3)CC2)cc1 (stereo not drawn) [Compound 335]	100	100		
COCCOCCON=Cc1ccc(C[N+]2([O-])CCC(O)(C(c3ccc(OC(F)(F)F)cc3)c3ccc(OC(F)(F)F)cc3)CC2)cc1 (stereo not drawn) [Compound 336]	100	100		
CCOCON=Cc1ccc(C[N+]2([O-])CCC(O)(C(c3ccc(OC(F)(F)F)cc3)c3ccc(OC(F)(F)F)cc3)CC2)cc1 (stereo not drawn) [Compound 337]	100	100		
COc1ccc(C(c2ccc(OC(F)(F)F)cc2)C2(O)CC[N+]([O-])(Cc3ccc(Oc4ccccn4)cc3)CC2)cc1 (stereo not drawn) [Compound 338]	100	100		
[O-][N+]1(Cc2ccc(Oc3ccccn3)cc2)CCC(O)(C(c2ccc(Br)cc2)c2ccc(OC(F)(F)F)cc2)CC1 (stereo not drawn) [Compound 339]	100	100		
Cc1ccc(C(c2ccc(OC(F)(F)F)cc2)C2(O)CC[N+]([O-])(Cc3ccc(Oc4ccccn4)cc3)CC2)cc1 (stereo not drawn) [Compound 340]	100	100		
[O-][N+]1(Cc2ccc(C3OCCO3)cc2)CCC(O)(C(c2ccc(OC(F)(F)F)cc2)c2ccc(OC(F)(F)F)cc2)CC1 (stereo not drawn) [Compound 341]	100	100		
[O-][N+]1(Cc2ccc(C3OCCO3)cc2)CCC(O)(C(c2ccc(C(F)(F)F)cc2)c2ccc(C(F)(F)F)cc2)CC1 (stereo not drawn) [Compound 342]	100	100		
[O-][N+]1(Cc2ccc(Oc3ccccn3)cc2)CCC(O)(C(c2ccc(OC(F)(F)F)cc2)c2ccc(C(F)(F)F)cc2)CC1 (stereo not drawn) [Compound 343]	100	100		
COCCON=Cc1ccc(C[N+]2([O-])CCC(O)(C(c3ccc(OC(F)(F)F)cc3)c3ccc(OC(F)(F)F)cc3)CC2)cc1 (stereo not drawn) [Compound 344]	100	100		
[O-][N+]1(Cc2ccc(Oc3ccccn3)cc2)CCC(O)(C(c2ccc(Cl)cc2)c2ccc(Cl)cc2)CC1 (stereo not drawn) [Compound 345]	100	100		
[O-][N+]1(Cc2ccc(Oc3ccccn3)cc2)CCC(O)(C(c2ccc(F)cc2)c2ccc(OC(F)(F)F)cc2)CC1 (stereo not drawn) [Compound 346]	100	100		
[O-][N+]1(Cc2ccc(Oc3ccccn3)cc2)CCC(O)(C(c2ccc(OC(F)F)cc2)c2ccc(OC(F)(F)F)cc2)CC1 (stereo not drawn) [Compound 347]	100	100		
Cc1cccnc1Oc1ccc(C[N+]2([O-])CCC(O)(C(c3ccc(OC(F)(F)F)cc3)c3ccc(OC(F)(F)F)cc3)CC2)cc1 (stereo not drawn) [Compound 349]	100	100		
Cc1ccc(Oc2ccc(C[N+]3([O-])CCC(O)(C(c4ccc(OC(F)(F)F)cc4)c4ccc(OC(F)(F)F)cc4)CC3)cc2)nc1 (stereo not drawn) [Compound 350]	100	100		
CCOC(OCC)c1ccc(C[N+]2([O-])CCC(O)(C(c3ccc(OC(F)(F)F)cc3)c3ccc(OC(F)(F)F)cc3)CC2)cc1 (stereo not drawn) [Compound 351]	100	100		
N#CCON=Cc1ccc(C[N+]2([O-])CCC(O)(C(c3ccc(OC(F)(F)F)cc3)c3ccc(OC(F)(F)F)cc3)CC2)cc1 (stereo not drawn) [Compound 353]	100	100		
Cc1cccc(Oc2ccc(C[N+]3([O-])CCC(O)(C(c4ccc(OC(F)(F)F)cc4)c4ccc(OC(F)(F)F)cc4)CC3)cc2)n1 (stereo not drawn) [Compound 354]	100	100		
